The record followed here is PubChem BioAssay AID1259411 (Chemical Carcinogenesis Research Information System (CCRIS), 2018).

Active and inactive are the calls of the source. How the calls were made is not given here.

The data set concerns rodent carcinogenicity bioassays, tumor incidence. Description: CCRIS carcinogenicity studies. The method in brief: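 NCI-built, expert-reviewed records of carcinogenicity and related test outcomes (mutagenicity, tumor promotion/inhibition) compiled from published and report sources, historical span 1985-2011, not updated.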

Regarding `CN1[C@@H]2CC(OC(=O)[C@H](CO)c3ccccc3)C[C@H]1[C@@H]1O[C@@H]12` (stereo partly drawn), the carcinogen call by setting is: (Species: MOUSE, Strain/Sex: B6C3F1/FEMALE, Route: GAVAGE, Dose: 0, 1, 5, 25 MG/KG IN DISTILLED WATER FOR 104-105 WK (STUDY DURATION: 105 WK), Dose: 0, 1, 5, 25 MG/KG IN DISTILLED WATER FOR 104-105 WK (STUDY DURATION: 105 WK)) “inactive; negative”; (Species: MOUSE, Strain/Sex: B6C3F1/FEMALE, Route: GAVAGE, Dose: 0, 25 MG/KG IN WATER 5 D/WK FOR 104 WK, CONTROL AND DOSED GROUPS FED AD LIBITUM (STUDY DURATION: 104 WK)) “inactive; negative”; (Species: MOUSE, Strain/Sex: B6C3F1/FEMALE, Route: GAVAGE, Dose: 0, 25 MG/KG IN WATER 5 D/WK FOR 104 WK, CONTROL GROUP DIET RESTRICTED TO LIMIT WEIGHTS TO 85% OF AD LIBITUM-FED GROUP (S) “inactive; negative”; (Species: MOUSE, Strain/Sex: B6C3F1/FEMALE, Route: GAVAGE, Dose: 0, 25 MG/KG IN WATER 5 D/WK FOR 104 WK, CONTROL GROUP WAS WEIGHT-MATCHED TO DOSED GROUP (STUDY DURATION: 104 WK)) “inactive; negative”; (Species: MOUSE, Strain/Sex: B6C3F1/FEMALE, Route: GAVAGE, Dose: 0, 25 MG/KG IN WATER 5 D/WK FOR 157 WK, CONTROL GROUP DIET RESTRICTED TO LIMIT WEIGHTS TO 85% OF AD LIBITUM-FED GROUPS () “inactive; negative”; (Species: MOUSE, Strain/Sex: B6C3F1/MALE, Route: GAVAGE, Dose: 0, 1, 5, 25 MG/KG IN DISTILLED WATER FOR 104-105 WK (STUDY DURATION: 105 WK), Dose: 0, 1, 5, 25 MG/KG IN DISTILLED WATER FOR 104-105 WK (STUDY DURATION: 105 WK)) “inactive; negative”. Also, the carcinogen call (Species: MOUSE, Strain/Sex: B6C3F1/MALE, Route: GAVAGE, Dose: 0, 25 MG/KG IN WATER 5 D/WK FOR 104 WK, CONTROL AND DOSED GROUPS FED AD LIBITUM (STUDY DURATION: 104 WK)) was “inactive; negative”; the carcinogen call (Species: MOUSE, Strain/Sex: B6C3F1/MALE, Route: GAVAGE, Dose: 0, 25 MG/KG IN WATER 5 D/WK FOR 104 WK, CONTROL GROUP DIET RESTRICTED TO LIMIT WEIGHTS TO 85% OF AD LIBITUM FED GROUP (S) was “inactive; negative”; the carcinogen call (Species: MOUSE, Strain/Sex: B6C3F1/MALE, Route: GAVAGE, Dose: 0, 25 MG/KG IN WATER 5 D/WK FOR 104 WK, CONTROL GROUP WAS WEIGHT-MATCHED TO DOSED GROUP (STUDY DURATION: 104 WK)) was “inactive; negative”; the carcinogen call (Species: MOUSE, Strain/Sex: B6C3F1/MALE, Route: GAVAGE, Dose: 0, 25 MG/KG IN WATER 5 D/WK FOR 157 WK, CONTROL GROUP DIET RESTRICTED TO LIMIT WEIGHTS TO 85% OF AD LIBITUM-FED GROUPS () was “inactive; negative”; the carcinogen call (Species: RAT, Strain/Sex: F344/FEMALE, Route: GAVAGE, Dose: 1, 5, 25 MG/KG IN DISTILLED WATER FOR 104 WK (STUDY DURATION: 104 WK), Dose: 1, 5, 25 MG/KG IN DISTILLED WATER FOR 104 WK (STUDY DURATION: 104 WK)) was “inactive; negative”; the carcinogen call (Species: RAT, Strain/Sex: F344/MALE, Route: GAVAGE, Dose: 0, 1, 5, 25 MG/KG IN DISTILLED WATER FOR 104 WK (STUDY DURATION: 104 WK), Dose: 0, 1, 5, 25 MG/KG IN DISTILLED WATER FOR 104 WK (STUDY DURATION: 104 WK)) is “inactive; negative”.

Regarding `CN(C)c1ccc(C(=C2C=CC(=[N+](C)C)C=C2)c2c(O)c(S(=O)(=O)[O-])cc3cc(S(=O)(=O)O)ccc23)cc1`, the carcinogen call was “inactive; negative” (Species: MOUSE, Strain/Sex: CD-1/FEMALE, Route: ORAL, Dose: 0, 0.033, 0.33, 0.66% IN DIET TO PUPS OF PARENTS GIVEN THE SAME DIETARY DOSES FOR 9 WK PRIOR TO MATING. FROM 2 TO 5 WK O, Dose: 0, 0.033, 0.33, 0.66% IN DIET TO PUPS OF PARENTS GIVEN THE SAME DIETARY DOSES FOR 9 WK PRIOR TO MATING. FROM 2 TO 5 WK O) and “inactive; negative” (Species: MOUSE, Strain/Sex: CD-1/MALE, Route: ORAL, Dose: 0, 0.033, 0.33, 0.66% IN DIET TO PUPS OF PARENTS GIVEN THE SAME DIETARY DOSES FOR 9 WK PRIOR TO MATING. FROM 2 TO 5 WK O, Dose: 0, 0.033, 0.33, 0.66% IN DIET TO PUPS OF PARENTS GIVEN THE SAME DIETARY DOSES FOR 9 WK PRIOR TO MATING. FROM 2 TO 5 WK O).

Turning to `CN(C)c1ccc(C(=O)c2ccc(N(C)C)cc2)cc1`, the carcinogen call reads like this: (Species: MOUSE, Strain/Sex: B6C3F1/FEMALE, Route: ORAL, Dose: 0, 1250, 2500 PPM IN DIET, Dose: 0, 1250, 2500 PPM IN DIET, Tumor Site: Type of Lesion: LIVER: HEPATOCELLULAR ADENOMA OR CARCINOMA) “active; positive”; (Species: MOUSE, Strain/Sex: B6C3F1/MALE, Route: ORAL, Dose: 0, 1250, 2500 PPM IN DIET, Dose: 0, 1250, 2500 PPM IN DIET, Tumor Site: Type of Lesion: INTEGUMENTARY SYSTEM (SUBCUTANEOUS TISSUE): HEMANGIOSARCOMA OR HEMANGIOMA) “active; positive”; (Species: RAT, Strain/Sex: F344/FEMALE, Route: ORAL, Dose: 0, 500, 1000 PPM IN DIET, Dose: 0, 500, 1000 PPM IN DIET, Tumor Site: Type of Lesion: LIVER: HEPATOCELLULAR CARCINOMA OR NEOPLASTIC NODULE) “active; positive”; (Species: RAT, Strain/Sex: F344/MALE, Route: ORAL, Dose: 0, 250, 500 PPM IN DIET, Dose: 0, 250, 500 PPM IN DIET, Tumor Site: Type of Lesion: LIVER: HEPATOCELLULAR CARCINOMA OR NEOPLASTIC NODULE) “active; positive”.
